The values that follow come from patent US11459327B1, “Cycloalkyl and hetero-cycloalkyl inhibitors, preparation methods therefor, and use thereof” (Suzhou Zelgen Biopharmaceuticals Co., Ltd., priority 2019, dated 2022).

For assay [1], the system named is NCI-H358(KRAS^G12C mutation) cells. Briefly: Cell assay of antiproliferative activity (Celltiter-Glo, 5 days) against NCI-H358 cells. The format is cell-based. The note with it: 5 days incubation. Here is the method:
(§1) Cell assay of antiproliferative activity of compounds against NCI-H358(KRAS^G12C mutation) and A549(KRAS^G12S mutation) cells.
(§2) 40 μl phosphate buffer was added to the outer wells of the 384 microplate, and 40 μl cell suspension to be tested was added to the other wells. Then the microplate was incubated in a carbon dioxide incubator overnight.
(§3) The compounds to be tested were gradiently diluted, each compound was performed 10 concentration gradients (diluted from 50 μM to 0.003 μM) and added 100 nL to the corresponding wells in the microplate. After addition, 40 μl of phosphate buffer was added to each well in rows A and P and columns 1 and 24, and then the microplate was incubated in a carbon dioxide incubator for 5 days.
(§4) 20 μL of Promega Celltiter-Glo reagent was added to each well of the microplate, and then the luminescence signal was stabilized by oscillating at room temperature for 10 min. Then PekinElmer Envision multi-label analyzer was used to read.
(§5) Finally, GraphPad Prism software was used to calculate the IC50 value of the compound and the fitting curve was drawn.
(§6) Anti-proliferative activity of the compounds of the present invention against NCI-H358(KRAS^G12C mutation) and A549(KRAS^G12S mutation) cells were shown in Table 1.

The subject of assay [2] is A549(KRAS^G12S mutation) cells. Nature of the assay: Cell assay of antiproliferative activity (Celltiter-Glo, 5 days) against A549 cells. The format is cell-based. The note with it: Homo sapiens, 120 h, 5 days incubation. Here is the method: as §1, §2, §3, §4, §5, §6

In the case of `C=CC(=O)N1CCN(c2nc(O[C@@H]3CCC[C@@H]3N(C)C)nc3c2CCN(c2cccc4cccc(Cl)c24)C3)CC1CC#N` (stereo partly drawn) [Example 15, 2-(1-acroloyl-4-(7-(8-chloronaphthalen-1-yl)-2-(((cis)-2-(dimethylamino)cyclopentyl)oxy)-5,6,7,8-tetrahydropyrido[3,4-d]pyrimidin-4-yl)piperazin-2-yl) acetonitrile], the IC50 in assay [1] (Homo sapiens, NCI-H358, 120 h) is 90 nM; in assay [2], 13500 nM.

Take `C=C(F)C(=O)N1CCN(c2nc(OCCN(C)C3CCC3)nc3c2CCN(c2cccc4cccc(Cl)c24)C3)CC1CC#N` (stereo not shown) [Example 11, 2-(4-(7-(8-chloronaphthalen-1-yl)-2-(2-(cyclobutyl(methyl)amino)ethoxy)-5,6,7,8-tetrahydropyrido[3,4-d]pyrimidin-4-yl)-1-(2-fluoroacroloyl)piperazin-2-yl) acetonitrile]: the IC50 was 110 nM in assay [1] (Homo sapiens, NCI-H358, 120 h) and 3200 nM in assay [2].

On to `C=CC(=O)N1CCN(c2nc(OC[C@H](CC)N(C)C3CCC3)nc3c2CCN(c2cccc4cccc(Cl)c24)C3)CC1CC#N` (stereo partly drawn) [Example 8, 2-(1-acroloyl-4-(7-(8-chloronaphthalen-1-yl)-2-((S)-2-(cyclobutyl (methyl)amino)butyloxy)-5,6,7,8-tetrahydropyrido[3,4-d]pyrimidin-4-yl)piperazin-2-yl) acetonitrile], for which the IC50 in assay [1] (Homo sapiens, NCI-H358, 120 h) was 130 nM; in assay [2] it was 7040 nM.

Regarding `C=CC(=O)N1CCN(c2nc(OCCN(C)C3CCC3)nc3c2CCN(c2cccc4cccc(C)c24)C3)CC1CC#N` (stereo not shown) [Example 81, 2-(1-acroloyl-4-(2-(2-((cyclobutyl)(methyl)amino)ethoxy)-7-(8-methylnaphthalen-1-yl)-5,6,7,8-tetrahydropyrido[3,4-d]pyrimidin-4-yl)piperazin-2-yl) acetonitrile], the IC50 turned out to be 40 nM in assay [1] (Homo sapiens, NCI-H358, 120 h) and 7500 nM in assay [2].

As for `C=CC(=O)N1CCN(c2nc(OCCN(C)CC3CC3)nc3c2CCN(c2cccc(F)c2C(F)(F)F)C3)CC1` [Example 95], in assay [1] (Homo sapiens, NCI-H358, 120 h), it took 6260 nM to reach half-maximal inhibition (IC50).

Take `C=C(F)C(=O)N1CCN(c2nc(OCC3(CN(C)C)CC3)nc3c2C[C@H](C)N(c2cccc4ccc(F)c(Cl)c24)C3)C[C@@H]1CC#N` [Example 96A, 2-((S)-4-((S)-7-(8-chloro-7-fluoronaphthalen-1-yl)-2-((1-((dimethylamino)methyl)cyclopropyl)methoxy)-6-methyl-5,6,7,8-tetrahydropyrido[3,4-d]pyrimidin-4-yl)-1-(2-fluoroacroloyl)piperazin-2-yl) acetonitrile]: the IC50 in assay [1] is 191 nM.

`C=CC(=O)N1CC2CCC1CN2c1nc(OCC2(CN(C)C)CC2)nc2c1CCN(c1cccc3cccc(Cl)c13)C2` (stereo not shown) [Example 43, 1-(5-(7-(8-chloronaphthalen-1-yl)-2-((1-((dimethylamino)methyl)cyclopropyl)methoxyl)-5,6,7,8-tetrahydropyrido[3,4-d]pyrimidin-4-yl)-2,5-diazabicyclo[2.2.2]octane-2-yl)prop-2-ene-1-one] had an IC50 in assay [1] (Homo sapiens, NCI-H358, 120 h) of 830 nM.

In assay [1], `C=CC(=O)N1CCN(c2nc(OCC3(CN(C)C)CC3)nc3c2CC(C)N(c2cccc4cccc(Cl)c24)C3)CC1CC#N` (single isomer, unassigned) [Example 29B, 2-(1-acroloyl-4-(7-(8-chloronaphthalen-1-yl)-2-((1-((dimethylamino)methyl)cyclopropyl)methoxyl)-6-methyl-5,6,7,8-tetrahydropyrido [3,4-d]pyrimidin-4-yl)piperazin-2-yl) acetonitrile] came in with an IC50 of 53 nM.

In the case of `C=CC(=O)N1CCN(c2nc(OCC3(CN(C)C)CC3)nc3c2CC(C)N(c2cccc4cccc(Cl)c24)C3)CC1CC#N` (single isomer, unassigned) [Example 29C, 2-(1-acroloyl-4-(7-(8-chloronaphthalen-1-yl)-2-((1-((dimethylamino)methyl)cyclopropyl)methoxyl)-6-methyl-5,6,7,8-tetrahydropyrido [3,4-d]pyrimidin-4-yl)piperazin-2-yl) acetonitrile], the IC50 in assay [1] is 100 nM.

Molecule `C=C(F)C(=O)N1CCN(c2nc(OCC3(CN4CC(F)C4)CC3)nc3c2CCN(c2cccc4ccc(F)cc24)C3)C[C@@H]1CC#N` [Example 66] showed an IC50 in assay [1] (Homo sapiens, NCI-H358, 120 h) of 180 nM.

On to `C=CC(=O)N1CC2(CCN(c3nc(OCC4(CN(C)C)CC4)nc4c3CCN(c3cccc5cccc(Cl)c35)C4)C2)C1` [Example 44, 1-(6-(7-(8-chloronaphthalen-1-yl)-2-((1-((dimethylamino)methyl)cyclopropyl)methoxyl)-5,6,7,8-tetrahydropyrido[3,4-d]pyrimidin-4-yl)-2,6-diazaspiro[3.4]octane-2-yl)prop-2-ene-1-one], for which the IC50 in assay [1] (Homo sapiens, NCI-H358, 120 h) amounted to 3300 nM.

In turn, `C=CC(=O)N1CCN(c2nc(OCC3(CN(C)C)CC3)nc3c2CCN(c2cccc4cccc(Cl)c24)C3)[C@@H](C)C1` [Example 50, (S)-1-(-4-(7-(8-chloronaphthalen-1-yl)-2-((1-((dimethylamino)methyl)cyclopropyl)methoxyl)-5,6,7,8-tetrahydropyrido[3,4-d]pyrimidin-4-yl)-3-methylpiperazin-1-yl)prop-2-ene-1-one] gave an IC50 in assay [1] (Homo sapiens, NCI-H358, 120 h) of 300 nM.

In the case of `C=C(F)C(=O)N1CCN(c2nc(OCC3(C(C)N(C)C)CC3)nc3c2CCN(c2cccc4cccc(Cl)c24)C3)C[C@@H]1CC#N` (stereo partly drawn) [Example 53A, 2-((2S)-4-(7-(8-chloronaphthalen-1-yl)-2-(1-(1-((dimethylamino)ethyl)cyclopropyl)methoxy)-5,6,7,8-tetrahydropyrido[3,4-d]pyrimidin-4-yl)-1-(2-fluoroacroloyl)piperazin-2-yl) acetonitrile], in assay [1], the IC50 amounted to 1400 nM.

`C=C(F)C(=O)N1CCN(c2nc(OCC3(CN(C)C)CC3)nc3c2CCN(c2cccc4ccc(F)c(Cl)c24)C3)C[C@@H]1CC#N` [Example 28] came in with an IC50 in assay [1] (Homo sapiens, NCI-H358, 120 h) of 8 nM. In other words, the single-digit nanomolar range.

The molecule `C=C(F)C(=O)N1CCN(c2nc(OCC3(CCN(C)C)CC3)nc3c2CCN(c2cccc4cccc(Cl)c24)C3)C[C@@H]1CC#N` [Example 52, (S)-2-(4-(7-(8-chloronaphthalen-1-yl)-2-((1-(2-(dimethylamino)ethyl)cyclopropyl)methoxy)-5,6,7,8-tetrahydropyrido[3,4-d]pyrimidin-4-yl)-1-(2-fluoroacroloyl)piperazin-2-yl) acetonitrile] came in with an IC50 in assay [1] (Homo sapiens, NCI-H358, 120 h) of 540 nM.

In assay [1] (Homo sapiens, NCI-H358, 120 h), `C=C(F)C(=O)N1CCN(c2nc(OCC3(CN4CCC4)CC3)nc3c2CCN(c2cccc4ccc(F)c(Cl)c24)C3)C[C@@H]1CC#N` [Example 58, (S)-2-(4-(2-((1-(azetidin-1-ylmethyl)cyclopropyl)methoxy)-7-(8-chloro-7-fluoronaphthalen-1-yl)-5,6,7,8-tetrahydropyrido[3,4-d]pyrimidin-4-yl)-1-(2-fluoroacroloyl)piperazin-2-yl) acetonitrile] returned an IC50 of 65 nM.

Turning to `C=CC(=O)N1CCN(c2nc(OCC3(N(C)C)CC3)nc3c2CCN(c2cccc4cccc(Cl)c24)C3)CC1CC#N` (stereo not shown) [Example 30], the IC50 in assay [1] (Homo sapiens, NCI-H358, 120 h) stood at 41 nM.

In assay [1] (Homo sapiens, NCI-H358, 120 h), `C=C(F)C(=O)N1CCN(c2nc(OCC3(CN(C)C)COC3)nc3c2CCN(c2cccc4cccc(Cl)c24)C3)CC1CC#N` (stereo not shown) [Example 25, 2-(4-(7-(8-chloronaphthalen-1-yl)-2-((3-((dimethylamino)methyl)oxetan-3-yl)methoxy)-5,6,7,8-tetrahydropyrido[3,4-d]pyrimidin-4-yl)-1-(2-fluoroacroloyl)piperazin-2-yl) acetonitrile] showed an IC50 of 59 nM.
